Assay results: patent US20130252843A1, “METHOD OF MAKING AND USING FLUORESCENT-TAGGED NANOPARTICLES AND MICROARRAYS” (THE STATE OF OREGON ACTING BY AND THROUGH THE STATE BOARD …, priority 2010, published 2013)
Like-named read-outs stand apart in the source and are kept apart here.

Legend:
[1] = target: blindly prepared lectins (U1-U7) (Glycine max, UniProt P05046); assay type: binding; design: unit not given here
Procedure: The unspecific binding sites of Sugar coupled Au-PFPA was inhibited by the addition of BSA (3% BSA, 0.2% Tween in PBS buffer pH 7). The 1,500 μL of sugar-coupled Au-PFPA was centrifuged at 9,000 rpm for 8 minutes and was redissolved in a PBS buffer with 3% BSA (0.2% Tween). The volume was made up to 900 μL. The resultant solution was incubated at room temperature with gentle shaking for 1 hour. The BSA blocked Au-PFPA-sugar nanoparticle was centrifuged at 10,000 rpm for 6 minutes and the excess BSA was removed. To a volume of 1,500 μL solution 10 mg/mL lectin (Con A—Concanavalin A, Canavalia ensiformis jack bean protein, SBA—soybean agglutinin, Glycine max and PNA—Peanut Agglutinin, Arachis hypogaea all purchased from Sigma Aldrich) was introduced the resultant solution was incubated at room temperature while gently shaking.
To test the training matrix and its strength to identify individual lectins, seven blindly prepared lectins (U1-U7) were used as test samples. The procedure for each test sample is the same as that used for the known samples used in the training matrix. The final SPR shift (Table 14) was used in the training matrix (Table 10) for prediction.

ConA-FSNPs = target: T1, ConA-FSNPs (Canavalia ensiformis, UniProt P02866); assay: Carbohydrate microarray incubated with ConA-FSNPs, fluorescence imaging; assay type: binding; conditions: PS coating; ConA-FSNPs 0.5 mg/ml
T1 construct: purchased Sigma-Aldrich Type IV
Procedure: This example concerns the fabrication of carbohydrate microarrays. […] The slides were then reacted with PAAm-4-PFPA solution at 50° C. for 5 hours, and sonicated twice in H2O for 5 minutes each time. Solutions of carbohydrates were prepared in H2O. […] The slides were dried under oil pump for 1 hour. A solution of PS or PEO in CHCl3 (5 mg/ml) was spinning-coated on the slides. The Slides were then covered with a 280-nm long-path optical filter (WG-280, Schott Glass), irradiated with a 450-W medium pressure Hg lamp (Hanovia) for 9 min, sonicated 5 min in CHCl3 and 5 minutes in H2O.
This example concerns microarray assay and fluorescence imaging. Carbohydrate microarrays were incubated in a 0.5 mg/ml solution of ConA-FSNPs in HEPES (pH 7.5, 1 mM CaCl2, 1 mM MnCl2) for 1 hour, rinsed with HEPES buffer 3 times and dried. The slides were scanned using a Genepix 4000B microarray scanner at excitation of 532 nm. Image analysis was carried out with Axon Genepix Pro 5.1 analysis software (Molecular Devices Corporation, Union City, Calif.).
FIG. 52 provides the fluorescence images of carbohydrate microarrays with PS or PEO coating incubated with ConA-FSNPs at 0.5 mg/ml. […] However, for carbohydrate microarrays having a PEO coating, the signal from those “high-intensity” carbohydrate targets was negative (FIG. 53).

CVN-Q = CVN-Q (Nostoc ellipsosporum, UniProt P81180, Q50C)
CVN-M = CVN-M (Nostoc ellipsosporum, UniProt P81180, E41A/N42A/T57A/R76A/Q78G)
Con A = target: T2, Con A (Canavalia ensiformis, UniProt P02866)
T2 construct: purchased Sigma-Aldrich Type IV (catalogue number not given)

[2] = Domain A; cited from earlier work
[3] = Domain B; cited from earlier work
[4] = free glycan; cited from earlier work
[5] = free glycan, solution; cited from earlier work

| Molecule | labeling intensity by ConA-FSNPs on carbohydrate microarray (ConA-FSNPs) | Association constant Ka with CVN-Q (CVN-Q; [2]) | Association constant Ka with CVN-Q (CVN-Q; [3]) | Association constant Ka with CVN-M (CVN-M; [4]) [M⁻¹] | Association constant Ka with Con A (Con A; [5]) [M⁻¹] | further results |
| --- | --- | --- | --- | --- | --- | --- |
| O=C[C@H](O)[C@@H](O)[C@H](O[C@@H]1O[C@H](CO)[C@@H](O)[C@H](O)[C@H]1O)[C@H](O)CO [Cellobiose] |  |  |  |  |  | Unknown SPR shift, weak binders ([1]; unknown protein u1 (predicted class SBA)): 2.1; Unknown SPR shift, weak binders ([1]; unknown protein u7 (predicted class SBA)): 2.1 |
| OC[C@H]1O[C@@H](O[C@H]2[C@H](O)[C@@H](O)[C@@H](O)O[C@@H]2CO)[C@H](O)[C@@H](O)[C@H]1O [Lac] | slightly less |  |  |  |  |  |
| OC[C@H]1O[C@H](O[C@@H]2[C@@H](O[C@@H]3C(O)O[C@H](CO)[C@@H](O)[C@@H]3O)O[C@H](CO)[C@@H](O)[C@@H]2O)[C@@H](O)[C@@H](O)[C@@H]1O (stereo partly drawn) [2α, 2α-Man3, α-1,2-α-1,2-mannotriose] |  | 2.94 × 10^5 (Domain A); M^−1 | 2.33 × 10^4 (Domain B) M^−1 | 294000 | 379000 | Kd (CVN-Q; data in brackets, free ligand; read-out: dissociation constant of the free ligand with CVN-Q; cited from earlier work): 15.5 µM; Kd (CVN-M; data in brackets, free ligand; read-out: dissociation constant of the free ligand with CVN-M; cited from earlier work): 3.4 µM; Association constant Ka with CVN-M (CVN-M; free glycan; listed as 2α,2α-Man3; cited from earlier work): 294000 M⁻¹; Kd (Con A; data in brackets, free ligand; read-out: dissociation constant of the free ligand with Con A; cited from earlier work): 2.97 µM; Association constant Ka with Con A (Con A; free glycan, solution; listed as 2α,2α-Man3; cited from earlier work): 379000 M⁻¹ |
| OC[C@H]1O[C@H](O[C@@H]2C(O)O[C@H](CO)[C@@H](O)[C@@H]2O)[C@@H](O)[C@@H](O)[C@@H]1O (stereo partly drawn) [Compound 2α-Man2, 2-O-α-D-Mannopyranosyl-D-mannopyranose] | most intensely | 1.43 × 10^3 (Domain A); M^−1 | 1.56 × 10^4 (Domain B) M^−1 | 1320 | 41700 | Kd (CVN-Q; read-out: dissociation constant of the free ligand with CVN-Q; data in brackets, free ligand; cited from earlier work): 89.8 µM; Kd (CVN-M; read-out: dissociation constant of the free ligand with CVN-M; data in brackets, free ligand; cited from earlier work): 757 µM; Kd (Con A; read-out: dissociation constant of the free ligand with Con A; data in brackets, free ligand; cited from earlier work): 24 µM |
| Dextran | slightly less |  |  |  |  |  |
